Common to all, as to type: cell-based
The test system of assay [1] is KRas-mediated Phosphorylation of ERK in HCT116 cells. As to the kind of experiment: Cisbio HTRF pERK assay, HCT116 cells. Conditions: single point at 100 nM; for inhibition at 0.1 µM: Homo sapiens, HCT-116, HCT116 cells; for Inhibition (HTRF % at 100 nM) of KRas-mediated Phosphorylation of ERK, HCT116: HCT116 cells, 0.1 µM. (In TR-FRET formats the signal depends on donor and acceptor labels being close together.)

The subject of assay [2] is KRas-mediated Phosphorylation of ERK in H460 cells. As to the kind of experiment: Cisbio HTRF pERK assay, H460 cells. The settings on record: single point at 100 nM; for inhibition at 0.1 µM: Homo sapiens, NCI-H460, H460 cells; for Inhibition (HTRF % at 100 nM) of KRas-mediated Phosphorylation of ERK, H460: H460 cells, 0.1 µM.
Assay [3] has as its system KRas-mediated Phosphorylation of ERK in A549 cells. As to the kind of experiment: Cisbio HTRF pERK assay, A549 cells. Conditions: single point at 100 nM; for inhibition at 0.1 µM: Homo sapiens, A549, A549 cells; for Inhibition (HTRF % at 100 nM) of KRas-mediated Phosphorylation of ERK, A549: A549 cells, 0.1 µM.
The subject of assay [4] is KRas-mediated Phosphorylation of ERK in H358 cells. The experiment in a line: Cisbio HTRF pERK assay, H358 cells. The settings on record: single point at 100 nM; for inhibition at 0.1 µM: Homo sapiens, NCI-H358, H358 cells; for Inhibition (HTRF % at 100 nM) of KRas-mediated Phosphorylation of ERK, H358: H358 cells, 0.1 µM.

Turning to `CCc1c(F)ccc2cc(O)cc(-c3c(F)cc4c(N5CCCn6nc(C(=O)N7CCCC7)cc6C5)nc(OC[C@@]56CCCN5C[C@H](F)C6)nc4c3F)c12` [Example 58, (5-(7-(8-ethyl-7-fluoro-3-hydroxynaphthalen-1-yl)-6,8-difluoro-2-(((2R,7aS)-2-fluorotetrahydro-1H-pyrrolizin-7a(5H)-yl)methoxy)quinazolin-4-yl)-5,6,7,8-tetrahydro-4H-pyrazolo[1,5-a][1,4]diazepin-2-yl)(pyrrolidin-1-yl)methanone], the inhibition at 0.1 µM in assay [1] turned out to be 12%; in assay [2], 58%.
As for `CCc1c(F)ccc2cc(O)cc(-c3c(F)cc4c(N5CCCC6(CC(=O)N6)C5)nc(OCC5(CN(C)C)CC5)nc4c3F)c12` (stereo not drawn) [Example 51, 6-(2-((1-((dimethylamino)methyl)cyclopropyl)methoxy)-7-(8-ethyl-7-fluoro-3-hydroxynaphthalen-1-yl)-6,8-difluoroquinazolin-4-yl)-1,6-diazaspiro[3.5]nonan-2-one], the inhibition at 0.1 µM is 6% in assay [3] and 67% in assay [4].
As to `CCc1c(F)ccc2cc(O)cc(-c3c(F)cc4c(N5CCCC6(CNC(=O)N6)C5)nc(OCC5(CN(C)C)CC5)nc4c3F)c12` (stereo not drawn) [Example 49, 7-(2-((1-((dimethylamino)methyl)cyclopropyl)methoxy)-7-(8-ethyl-7-fluoro-3-hydroxynaphthalen-1-yl)-6,8-difluoroquinazolin-4-yl)-1,3,7-triazaspiro[4.5]decan-2-one], the inhibition at 0.1 µM in assay [1] is 13%; in assay [2], 23%.
In the case of `CCc1c(F)ccc2cc(O)cc(-c3c(F)cc4c(N5CCCC6(C5)NC(=O)NC6=O)nc(OCC5(CN(C)C)CC5)nc4c3F)c12` (stereo not drawn) [Example 54, 7-(2-((1-((dimethylamino)methyl)cyclopropyl)methoxy)-7-(8-ethyl-7-fluoro-3-hydroxynaphthalen-1-yl)-6,8-difluoroquinazolin-4-yl)-1,3,7-triazaspiro[4.5]decane-2,4-dione], the inhibition at 0.1 µM amounted to 61% in assay [3] and 100% in assay [4].
With `CCc1c(F)ccc2cc(O)cc(-c3c(F)cc4c(N5CCCC6(CC(O)C6)C5)nc(OCC5(CN(C)C)CC5)nc4c3F)c12` (stereo not drawn) [Example 53, 6-(2-((1-((dimethylamino)methyl)cyclopropyl)methoxy)-7-(8-ethyl-7-fluoro-3-hydroxynaphthalen-1-yl)-6,8-difluoroquinazolin-4-yl)-6-azaspiro[3.5]nonan-2-ol], the results for the inhibition at 0.1 µM in assay [3] and in assay [4] were 27% and 40%, respectively.
With `CCc1c(F)ccc2cc(O)cc(-c3ccc4c(N5CCCC6(CNS(=O)(=O)N6)C5)nc(OCC5(CN(C)C)CC5)nc4c3F)c12` (stereo not drawn) [Example 37, 7-(2-((1-((dimethylamino)methyl)cyclopropyl)methoxy)-7-(8-ethyl-7-fluoro-3-hydroxynaphthalen-1-yl)-8-fluoroquinazolin-4-yl)-2-thia-1,3,7-triazaspiro[4.5]decane 2,2-dioxide], the inhibition at 0.1 µM in assay [1] came out at 0%; in assay [2], 28%.
Consider `CCc1c(F)ccc2cc(O)cc(-c3c(F)cc4c(N5CCCn6nc(C(=O)N(C)C)cc6C5)nc(OC[C@@]56CCCN5C[C@H](F)C6)nc4c3F)c12` (atropisomer, axis not shown; (aS)) [Example 64, 5-((S)-7-(8-ethyl-7-fluoro-3-hydroxynaphthalen-1-yl)-6,8-difluoro-2-(((2R,7aS)-2-fluorohexahydro-1H-pyrrolizin-7a-yl)methoxy)quinazolin-4-yl)-N,N-dimethyl-5,6,7,8-tetrahydro-4H-pyrazolo[1,5-a][1,4]diazepine-2-carboxamide], for which the “Inhibition (HTRF % at 100 nM) of KRas-mediated Phosphorylation of ERK, HCT116” value in assay [1] is listed as 14%. For the same molecule, in assay [2], the “Inhibition (HTRF % at 100 nM) of KRas-mediated Phosphorylation of ERK, H460” value is listed as 3%.
Regarding `CCc1c(F)ccc2cc(O)cc(-c3c(F)cc4c(N5C[C@@H]6C[C@H](C5)[C@H](O)C6)nc(OC[C@@]56CCCN5C[C@H](F)C6)nc4c3F)c12` (atropisomer, axis not shown; (aS)) [Example 68, (1R,5R,6R)-3-((S)-7-(8-ethyl-7-fluoro-3-hydroxynaphthalen-1-yl)-6,8-difluoro-2-(((2R,7aS)-2-fluorohexahydro-1H-pyrrolizin-7a-yl)methoxy)quinazolin-4-yl)-3-azabicyclo[3.2.1]octan-6-ol], the “Inhibition (HTRF % at 100 nM) of KRas-mediated Phosphorylation of ERK, HCT116” value in assay [1] is listed as 8%. The “Inhibition (HTRF % at 100 nM) of KRas-mediated Phosphorylation of ERK, H460” value in assay [2] was found to be 14%.
`CCc1c(F)ccc2cc(O)cc(-c3c(F)cc4c(N5CCCn6nc(C(=O)N(C)C)cc6C5)nc(OCC5(CN(C)C)CC5)nc4c3F)c12` [Example 55, 5-(2-((1-((dimethylamino)methyl)cyclopropyl)methoxy)-7-(8-ethyl-7-fluoro-3-hydroxynaphthalen-1-yl)-6,8-difluoroquinazolin-4-yl)-N,N-dimethyl-5,6,7,8-tetrahydro-4H-pyrazolo[1,5-a][1,4]diazepine-2-carboxamide]: the inhibition at 0.1 µM in assay [3] was -13%; in assay [4] it was 2%.
The matching figures for `CCc1c(F)ccc2cc(O)cc(-c3c(F)cc4c(N5CC6C(=O)NC(=O)C6C5)nc(OCC5(CN(C)C)CC5)nc4c3F)c12` (stereo not drawn) [Example 52, 5-(2-((1-((dimethylamino)methyl)cyclopropyl)methoxy)-7-(8-ethly-7-fluoro-3-hydroxynaphthalen-1-yl)-6,8-difluoroquinazolin-4-yl)tetrahydropyrrolo[3,4-c]pyrrole-1,3(2H,3aH)-dione]: 33% and 6%.
Regarding `CCc1c(F)ccc2cc(O)cc(-c3ccc4c(N5CCCC6(CNC(=O)N6)C5)nc(OCC5(CN(C)C)CC5)nc4c3F)c12` (stereo not drawn) [Example 36, 7-(2-((1-((dimethylamino)methyl)cyclopropyl)methoxy)-7-(8-ethyl-7-fluoro-3-hydroxynaphthalen-1-yl)-8-fluoroquinazolin-4-yl)-1,3,7-triazaspiro[4.5]decan-2-one], the results for the inhibition at 0.1 µM in assay [1] and in assay [2] were -22% and 25%, respectively.
The matching figures for `CCc1c(F)ccc2cc(O)cc(-c3c(F)cc4c(N5CCC[C@@](C)(O)C5)nc(OCC56CCCN5CCC6)nc4c3F)c12` [Example 48, (3R)-1-(7-(8-ethyl-7-fluoro-3-hydroxynaphthalen-1-yl)-6,8-difluoro-2-((tetrahydro-1H-pyrrolizin-7a(5H)-yl)methoxy)quinazolin-4-yl)-3-methylpiperidin-3-ol]: 50% and 75%.
For `O=S1(=O)NCC2(CCCN(c3nc(OC[C@@]45CCCN4C[C@H](F)C5)nc4c(F)c(-c5cc(O)cc6ccc(F)c(Cl)c56)c(F)cc34)C2)N1` (stereo partly drawn) [Example 45, 7-(7-(8-chloro-7-fluoro-3-hydroxynaphthalen-1-yl)-6,8-difluoro-2-(((2R,7aS)-2-fluorotetrahydro-1H-pyrrolizin-7a(5H)-yl)methoxy)quinazolin-4-yl)-2-thia-1,3,7-triazaspiro[4.5]decane 2,2-dioxide], in that order: 86% and 94%.
For `CCc1c(F)ccc2cc(O)cc(-c3c(F)cc4c(N5CCCn6nncc6C5)nc(OC[C@@]56CCCN5C[C@H](F)C6)nc4c3F)c12` [Example 61, 4-(4-(7,8-dihydro-4H-[1,2,3]triazolo[1,5-a][1,4]diazepin-5(6H)-yl)-6,8-difluoro-2-(((2R,7aS)-2-fluorotetrahydro-1H-pyrrolizin-7a(5H)-yl)methoxy)quinazolin-7-yl)-5-ethyl-6-fluoronaphthalen-2-ol], the inhibition at 0.1 µM in assay [1] was determined as 9%; in assay [2], 36%.
Regarding `CCc1c(F)ccc2cc(O)cc(-c3c(F)cc4c(N5CCC[C@@](C)(O)C5)nc(OC[C@@]56CCCN5C[C@H](F)C6)nc4c3F)c12` (atropisomer, axis not shown; (aS)) [Example 70, (R)-1-((S)-7-(8-ethyl-7-fluoro-3-hydroxynaphthalen-1-yl)-6,8-difluoro-2-(((2R,7aS)-2-fluorotetrahydro-1H-pyrrolizin-7a(5H)-yl)methoxy)quinazolin-4-yl)-3-methylpiperidin-3-ol], the “Inhibition (HTRF % at 100 nM) of KRas-mediated Phosphorylation of ERK, A549” value in assay [3] came out at 6%. The “Inhibition (HTRF % at 100 nM) of KRas-mediated Phosphorylation of ERK, H358” value in assay [4] was 24%.
Regarding `CCc1c(F)ccc2cc(O)cc(-c3ccc4c(N5CCCn6nncc6C5)nc(OC[C@@]56CCCN5C[C@H](F)C6)nc4c3F)c12` [Example 44], the inhibition at 0.1 µM in assay [3] was -9%; in assay [4] it was 3%.
The matching figures for `CCc1c(F)ccc2cc(O)cc(-c3ccc4c(N5CCCC6(CC(=O)N6)C5)nc(OCC5(CN(C)C)CC5)nc4c3F)c12` (stereo not drawn) [Example 38, 6-(2-((1-((dimethylamino)methyl)cyclopropyl)methoxy)-7-(8-ethyl-7-fluoro-3-hydroxynaphthalen-1-yl)-8-fluoroquinazolin-4-yl)-1,6-diazaspiro[3.5]nonan-2-one]: 9% and 16%.
As for `CCc1c(F)ccc2cc(O)cc(-c3c(F)cc4c(N5CCC[C@@](C)(O)C5)nc(OC[C@@]56CCCN5C[C@H](F)C6)nc4c3F)c12` (atropisomer, axis not shown; (aS)) [Example 69, (R)-1-((R)-7-(8-ethyl-7-fluoro-3-hydroxynaphthalen-1-yl)-6,8-difluoro-2-(((2R,7aS)-2-fluorotetrahydro-1H-pyrrolizin-7a(5H)-yl)methoxy)quinazolin-4-yl)-3-methylpiperidin-3-ol], the “Inhibition (HTRF % at 100 nM) of KRas-mediated Phosphorylation of ERK, A549” value in assay [3] stood at 84%. Besides, the “Inhibition (HTRF % at 100 nM) of KRas-mediated Phosphorylation of ERK, H358” value in assay [4] was found to be 101%.

What is called inhibition is the change of the read-out against control, counted positive when it falls.

Source of the values: patent publication US20240025907A1, “QUINAZOLINE PAN-KRas INHIBITORS” (Mirati Therapeutics, Inc., priority 2022, published 2024).
